{
  "source": "paper PMC7044277",
  "about": "(Nature Communications, 2020)",
  "type_in_all_cases": "cell-based",
  "key": {"320 non-olfactory GPCRs [1]": {"molecular_target": "T1, 320 non-olfactory GPCRs (Homo sapiens, UniProt Q96LB2)", "T1 construct": "expressed in transfected cells; host or cells: HTLA cells", "T1 sequence (Q96LB2 whole entry)": "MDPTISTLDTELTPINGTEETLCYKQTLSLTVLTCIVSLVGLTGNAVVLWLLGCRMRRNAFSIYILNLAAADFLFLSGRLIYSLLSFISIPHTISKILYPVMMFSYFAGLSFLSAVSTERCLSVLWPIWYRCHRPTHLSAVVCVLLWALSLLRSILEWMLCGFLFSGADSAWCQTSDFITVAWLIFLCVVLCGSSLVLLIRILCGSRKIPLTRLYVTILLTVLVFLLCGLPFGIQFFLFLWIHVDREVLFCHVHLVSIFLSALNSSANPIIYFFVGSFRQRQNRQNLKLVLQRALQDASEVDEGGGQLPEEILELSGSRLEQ", "conditions": "receptor MRGPRX1; replicate values, Fig_4g"}, "320 non-olfactory GPCRs [2]": {"molecular_target": "320 non-olfactory GPCRs (Homo sapiens, UniProt Q13258)", "sequence (Q13258 whole entry)": "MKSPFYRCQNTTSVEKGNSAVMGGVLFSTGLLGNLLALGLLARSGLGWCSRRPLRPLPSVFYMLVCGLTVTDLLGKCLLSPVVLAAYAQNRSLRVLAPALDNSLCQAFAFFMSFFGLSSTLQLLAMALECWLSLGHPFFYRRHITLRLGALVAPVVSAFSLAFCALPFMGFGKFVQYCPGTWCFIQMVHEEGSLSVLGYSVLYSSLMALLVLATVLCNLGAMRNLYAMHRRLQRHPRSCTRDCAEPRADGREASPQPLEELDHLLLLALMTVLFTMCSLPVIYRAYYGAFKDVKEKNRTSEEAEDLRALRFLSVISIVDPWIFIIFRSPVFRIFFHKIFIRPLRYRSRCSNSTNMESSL", "conditions": "receptor PTGDR; replicate values, Fig_4g"}, "320 non-olfactory GPCRs [3]": {"molecular_target": "T2, 320 non-olfactory GPCRs (Homo sapiens, UniProt Q02643)", "T2 construct": "expressed in transfected cells; host or cells: HTLA cells", "T2 sequence (Q02643 23-423)": "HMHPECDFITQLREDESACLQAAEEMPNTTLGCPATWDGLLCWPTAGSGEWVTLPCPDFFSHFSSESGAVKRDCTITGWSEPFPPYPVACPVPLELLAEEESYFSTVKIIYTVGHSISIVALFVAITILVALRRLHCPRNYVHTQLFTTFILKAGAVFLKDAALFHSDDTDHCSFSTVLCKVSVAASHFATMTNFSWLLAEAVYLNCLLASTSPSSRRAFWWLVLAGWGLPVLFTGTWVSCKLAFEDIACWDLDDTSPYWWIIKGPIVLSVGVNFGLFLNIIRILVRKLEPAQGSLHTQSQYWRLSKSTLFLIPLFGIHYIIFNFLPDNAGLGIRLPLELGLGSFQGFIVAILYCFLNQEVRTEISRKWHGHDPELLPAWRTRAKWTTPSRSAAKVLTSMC"}, "320 non-olfactory GPCRs [4]": {"molecular_target": "320 non-olfactory GPCRs (Homo sapiens, UniProt P30542)", "sequence (P30542 whole entry)": "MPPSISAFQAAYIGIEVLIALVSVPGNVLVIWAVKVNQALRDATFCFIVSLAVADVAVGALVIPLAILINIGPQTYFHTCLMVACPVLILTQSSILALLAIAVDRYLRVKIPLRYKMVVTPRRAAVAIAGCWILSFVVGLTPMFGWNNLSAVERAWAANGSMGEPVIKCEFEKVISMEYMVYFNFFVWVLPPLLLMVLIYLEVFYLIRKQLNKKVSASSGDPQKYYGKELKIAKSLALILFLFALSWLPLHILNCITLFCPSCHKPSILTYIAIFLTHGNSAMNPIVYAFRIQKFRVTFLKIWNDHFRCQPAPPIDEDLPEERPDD"}},
  "note": "Values joined by “and” are separate entries in the source; they are usually repeats but may differ in a detail not shown here. Equal values may be shown once.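 Wherever Fold of Basal is given: compound tested at 1 µM final concentration.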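 Wherever GPCRome agonism screen response is given: fold over basal response of each receptor without drug.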",
  "data": [
    {"smiles": "CCOc1cccc2cc(C(C)NCC3(O)CCCCC3)oc12", "note": "(stereo not shown) [O4LE6]", "values": [
      {"measurement": "GPCRome agonism screen response", "setting": "320 non-olfactory GPCRs [1]", "result": "1.163 and 1.233 and 1.345 and 0.8039"},
      {"measurement": "GPCRome agonism screen response", "setting": "320 non-olfactory GPCRs [2]", "result": "1.067 and 0.797 and 0.4909 and 0.5007"},
      {"measurement": "Fold of Basal", "setting": "320 non-olfactory GPCRs [3]", "result": "1.559 and 1.547 and 1.735 and 1.472"},
      {"measurement": "Fold of Basal", "setting": "320 non-olfactory GPCRs [4]", "result": "0.6117 and 1.0436 and 0.9318 and 0.9525"}
    ]}
  ]
}
